9 molecules from the NIST ThermoML archive (doi:10.1016/j.tca.2018.08.022) can be followed below.

The conditions of data set [1]: for mass density: 101.33 kPa, X-ray diffraction.
The nature of data set [2]: Molar enthalpy of transition or fusion. Conditions: DSC.

Structures are written as SMILES. ± gives the expanded uncertainty stated by the source.

As for `CCCCN(CCCC)c1ccc(N=Nc2ccc(-c3ccc4c(c3)C(=O)NC4=O)c(C#N)c2)cc1`, in data set [1] (200 K, Crystal 2), the mass density was 1262 ± 7 kg/m3. In addition, the Triple point temperature is on record as 456.85 ± 0.8 K in data set [1] (Crystal 1, DSC) and 436.45 ± 0.8 K in data set [1] (Crystal 2, DSC). Also, the “Molar enthalpy of transition or fusion” value was found to be 6.72 ± 0.239 kcal/mol in data set [2] (Crystal 1) and 0.621 ± 0.0478 kcal/mol in data set [2] (Crystal 2).

Turning to `CCCCN(CCCC)c1ccc(N=Nc2cccc(C#N)c2-c2ccc(C#N)c(C#N)c2)cc1`, the mass density in data set [1] (296 K, Crystal 2) was 1180 ± 6 kg/m3. Also, the Triple point temperature in data set [1] (Crystal 1, DSC) came out at 469.05 ± 0.8 K; in data set [1] (Crystal 2, DSC), 386.25 ± 0.8 K. Moreover, the “Molar enthalpy of transition or fusion” value turned out to be 8.48 ± 0.311 kcal/mol in data set [2] (Crystal 1) and 0.645 ± 0.0478 kcal/mol in data set [2] (Crystal 2).

For `N#Cc1cc(N)ccc1-c1ccc2c(c1)C(=O)NC2=O` [5-amino-2-(1,3-dioxoisoindolin-5-yl)benzonitrile], the Triple point temperature in data set [1] (Crystal, visual observation) stood at 589.15 ± 3 K.

As to `N#Cc1ccc(-c2ccc([N+](=O)[O-])cc2C#N)cc1C#N` [4-nitro-[1,1'-biphenyl]-2,3',4'-tricarbonitrile], the Triple point temperature in data set [1] (Crystal, visual observation) was 472.15 ± 3 K.

As for `CCCCN(CCCC)c1ccc(N=Nc2ccc(-c3ccc(C#N)c(C#N)c3)c(C#N)c2)cc1`, in data set [1] (296 K, Crystal 1), the mass density is reported as 1165 ± 6 kg/m3. Besides, the Triple point temperature came to 427.35 ± 0.8 K in data set [1] (Crystal 1, DSC) and 403.45 ± 0.8 K in data set [1] (Metastable crystal, DSC). Further, the Glass transition temperature in data set [1] (Glass, DSC) amounted to 42.00 ± 0.8 °C. Besides, in data set [2] (Crystal 1), the “Molar enthalpy of transition or fusion” value was 8.39 ± 0.311 kcal/mol.

With `CCCCCCCCN(CCCCCCCC)c1ccc(N=Nc2ccc(-c3ccc(C#N)c(C#N)c3)c(C#N)c2)cc1`, in data set [1] (296 K, Metastable crystal), the mass density came to 1124 ± 7 kg/m3. The Triple point temperature in data set [1] (Crystal 1, DSC) was 368.35 ± 0.8 K; in data set [1] (Metastable crystal, DSC), 365.05 ± 0.8 K.

In the case of `CCN(CC)c1ccc(N=Nc2ccc(-c3ccc(C#N)c(C#N)c3)c(C#N)c2)cc1`, the mass density in data set [1] (296 K, Crystal 2) was found to be 1217 ± 8 kg/m3. The Triple point temperature turned out to be 503.45 ± 0.8 K in data set [1] (Crystal 1, DSC); 487.95 ± 0.8 K in data set [1] (Crystal 2, DSC); 489.35 ± 0.8 K in data set [1] (Metastable crystal, DSC). In addition, the figures for the “Molar enthalpy of transition or fusion” value in data set [2] (Crystal 1) and in data set [2] (Crystal 2) were 8.13 ± 0.287 kcal/mol and 1.31 ± 0.0717 kcal/mol, respectively.

Regarding `N#Cc1ccc(-c2ccc(N)cc2C#N)cc1C#N` [4-amino-[1,1'-biphenyl]-2,3',4'-tricarbonitrile], the Triple point temperature in data set [1] (Crystal, visual observation) was determined as 558.15 ± 3 K.

With `N#Cc1cc([N+](=O)[O-])ccc1-c1ccc2c(c1)C(=O)NC2=O` [2-(1,3-dioxoisoindolin-5-yl)-5-nitrobenzonitrile], the Triple point temperature in data set [1] (Crystal, visual observation) worked out at 567.15 ± 3 K.

As a reminder, the mass density is the mass of a sample divided by its volume.
